Measurements from patent publication US20250074880A1, “NOVEL QUINOLINE DERIVATIVES AND USES THEREOF” (Istituto Europeo di Oncologia S.r.l., priority 2021, published 2025).
Where two headings read alike, the source gives them in different places.

Columns and labels:
[1] = system: MCF-7 primary breast adenocarcinoma cells
Protocol: The MCF-7 cells were seeded in six-well plates (150,000 cells/well), grown overnight (37° C., 5% CO2) during which they attached to the bottom plate. The cells were then treated with compound D5 (RS5982) or compound RS6008 at concentrations of 10 μM. 20 μM or 50 μM. In the negative and positive control experiments, the cells were treated with 0.25% DMSO and 1 μM of Paclitaxel, respectively. […] Finally, for each time point, the viable cell counts were plotted relatively to the number of viable cells measured in the presence of 0.25% DMSO.

[2] = system: MCF-7 primary breast adenocarcinoma cells; conditions: 10 μM, versus 0.1% DMSO, FIG. 7A-C
Protocol: The MCF-7 cells were seeded in six-well plates (300,000 cells/well), grown overnight (37° C., 5% CO2) during which they attached to the bottom plate. […] The cells were then fixated (10 min) with ice cold 100% methanol, washed twice with phosphate-buffered saline (PBS), and incubated with 3% (w/v) bovine serum albumin (BSA) in PBS containing 0.05% Tween 20 (room temperature, 1 h). Next, the cells were incubated (room temperature, 1 h) with human CREST patient serum (1:30 dilution, Antibodies Incorporated) to mark kinetochores, and mouse monoclonal anti-α-tubulin antibody (clone B512, 1:1000 dilution, Sigma) to mark microtubules, followed by incubation (room temperature, 30 min) with a secondary anti-mouse or anti-human IgG antibody that was conjugated either to chromophore AF647 (1:500, Invitrogen), AF488 (1:500 dilution, Invitrogen). DNA was stained with 0.1 μg/ml 4,6-diamidino-2-phenylindole (DAPI, Sigma Aldrich) and coverslips were mounted with Prolong Diamond Antifade (P36965, Invitrogen). To perform immunofluorescence imaging, the cells were captured on a confocal Nikon Eclipse Ti2-Spinning Disc V2 microscope (100× objective, NA=1.45, Nikon) equipped with an Andor iXon Ultra EMCCD camera. Images, acquired as Z-stacks (0.15 μm for each stack; about 80 stacks for mitotic cells) and analysed with ImageJ (Fiji) v1.53f51.

[3] = target: Ndc80 kinetochore subcomplex-MT binding (Homo sapiens, UniProt O14777); conditions: Ndc80 subcomplex:MTs 5 nM:10 nM; FIG. 3
Excerpt: Next, the Ndc80 kinetochore subcomplex was bound to AlphaScreen® acceptor beads. In parallel, biotinylated and taxol-stabilised MTs were bound to streptavidin-covered AlphaScreen® donor beads. […] A decrease in light emission is caused by abrogated Ndc80 kinetochore subcomplex-MT binding.
The recombinant His6-tagged Ndc80 kinetochore subcomplex was bound to AlphaScreen® (Amplified Luminescent Proximity Homogeneous Assay Screen) Ni^2+-acceptor beads. In parallel, biotinylated and taxol-stabilised MTs (Cytoskeleton) were bound to streptavidin-covered AlphaScreen® donor beads (Perkin Elmer). […] A decrease in or loss of light emission is caused by a reduced or total loss of Ndc80 kinetochore subcomplex-MT binding.

[4] = system: MCF-7 primary breast adenocarcinoma cells; conditions: for cell proliferation (summary statement): combined experimental findings
Protocol: The MCF-7 cells were seeded in six-well plates (150,000 cells/well), grown overnight (37° C., 5% CO2) during which they attached to the bottom plate. The cells were then treated with compound D5 (RS5982) at concentrations of 10 μM, 20 μM or 50 μM. In the negative and positive control experiments, the cells were treated with 0.25% DMSO and 1 μM of Paclitaxel, respectively. After 24 h and 48 h of incubation, the cells were pulse-labeled (30 min) with 10 μM of bromodeozyuridine (BrdU; stains actively replicating DNA), collected, and fixed with 95% ethanol. Next, the cells were treated with a BrdU-specific antibody (1:5 dilution, BD Bioscience 347580) and incubated for 1 h at room temperature. The secondary antibody used was AF488 Donkey anti mouse (dilution 1:50), which was incubated for 1 h at room temperature. Total DNA was stained overnight (4° C.) with 2.5 μg/ml of propidium iodide. Fluorescence-activated cell sorting (FACS) analysis next allowed the quantification of cells occurring in various stages of the cell cycle. Specifically, measurements were performed using MACSquant FACS (Miltenyi Biotech), and analysed by FlowJo software (Ashland). The G2/M cell cycle stage was evaluated by DNA content and negativity for BrdU incorporation, to avoid an overlap between G2 and late S-phase. The number of G2/M phase cells were plotted relative to that measured in the presence of 0.25% DMSO at each time point (fold change values=1).

Ndc80 kinetochore subcomplex-MT binding, sequence (O14777 whole entry): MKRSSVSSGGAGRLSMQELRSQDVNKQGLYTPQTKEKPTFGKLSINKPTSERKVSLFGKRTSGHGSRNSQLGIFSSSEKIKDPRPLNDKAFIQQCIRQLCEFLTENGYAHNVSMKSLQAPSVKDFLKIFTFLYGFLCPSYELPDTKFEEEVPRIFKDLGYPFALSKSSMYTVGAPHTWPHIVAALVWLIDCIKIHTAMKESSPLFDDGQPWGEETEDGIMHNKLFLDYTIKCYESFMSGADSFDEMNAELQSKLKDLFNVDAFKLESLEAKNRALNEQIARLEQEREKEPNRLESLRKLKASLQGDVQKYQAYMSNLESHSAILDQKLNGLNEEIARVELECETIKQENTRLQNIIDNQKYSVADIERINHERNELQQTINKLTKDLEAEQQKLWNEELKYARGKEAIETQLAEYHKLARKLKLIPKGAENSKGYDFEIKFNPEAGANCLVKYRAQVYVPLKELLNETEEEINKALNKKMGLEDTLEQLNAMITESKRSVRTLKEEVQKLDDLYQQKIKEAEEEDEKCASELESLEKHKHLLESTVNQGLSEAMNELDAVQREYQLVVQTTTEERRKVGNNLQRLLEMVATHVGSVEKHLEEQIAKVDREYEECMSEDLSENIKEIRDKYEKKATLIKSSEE
Ndc80 kinetochore subcomplex-MT binding, sequence (Q9BZD4 whole entry partner): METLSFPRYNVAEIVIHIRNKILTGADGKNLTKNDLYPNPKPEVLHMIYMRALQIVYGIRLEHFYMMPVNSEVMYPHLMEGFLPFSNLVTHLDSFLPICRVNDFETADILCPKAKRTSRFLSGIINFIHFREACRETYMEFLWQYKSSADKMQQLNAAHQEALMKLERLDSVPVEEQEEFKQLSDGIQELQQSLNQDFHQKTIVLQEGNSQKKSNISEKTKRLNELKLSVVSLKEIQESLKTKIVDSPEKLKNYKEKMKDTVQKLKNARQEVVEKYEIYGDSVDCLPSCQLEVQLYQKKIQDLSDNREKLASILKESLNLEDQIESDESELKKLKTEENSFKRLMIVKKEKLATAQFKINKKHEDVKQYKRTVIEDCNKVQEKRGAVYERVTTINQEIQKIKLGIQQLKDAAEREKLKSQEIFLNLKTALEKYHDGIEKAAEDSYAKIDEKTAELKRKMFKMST
Ndc80 kinetochore subcomplex-MT binding, sequence (Q8NBT2 whole entry partner): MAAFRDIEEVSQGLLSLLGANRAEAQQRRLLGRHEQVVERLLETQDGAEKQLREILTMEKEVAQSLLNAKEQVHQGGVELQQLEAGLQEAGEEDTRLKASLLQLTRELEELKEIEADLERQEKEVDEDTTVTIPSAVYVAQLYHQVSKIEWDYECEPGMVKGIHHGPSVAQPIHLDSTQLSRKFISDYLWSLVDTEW
Ndc80 kinetochore subcomplex-MT binding, sequence (Q9HBM1 whole entry partner): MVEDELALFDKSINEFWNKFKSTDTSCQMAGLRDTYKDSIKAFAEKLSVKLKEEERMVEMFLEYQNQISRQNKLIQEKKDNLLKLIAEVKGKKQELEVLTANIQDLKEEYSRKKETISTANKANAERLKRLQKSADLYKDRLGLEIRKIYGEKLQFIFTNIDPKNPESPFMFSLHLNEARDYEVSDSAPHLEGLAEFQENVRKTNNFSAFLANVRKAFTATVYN

| SMILES | cell viability ([1]; 10, 20 or 50 μM, 24, 48, 72 h, relative to 0.25% DMSO, FIG. 4) | anomalous kinetochore activity (unbound sister chromatids, lagging chromosomes) compared to control cells [2] | inhibition in the biochemical AlphaScreen binding assay [3] | arrest at mitotic entry (G2/M phase) ([4]; 10, 20 or 50 μM, 24 and 48 h, relative to 0.25% DMSO, FIG. 5) | cell proliferation (summary statement) [4] | cell viability ([1]; 50 μM, FIG. 6) |
| --- | --- | --- | --- | --- | --- | --- |
| Cc1ccc(NC(=O)c2cc(-c3ccc(C)o3)nc3ccccc23)c(C)c1 [D5, N-(2,4-Dimethylphenyl)-2-(5-methylfuran-2-yl) quinoline-4-carboxamide] | dose (D5)-dependent decrease in cell viability | increase in anomalous kinetochore activity | 59.93% | enhanced arrest at mitotic entry (G2/M phase) | delayed cell proliferation |  |
| Cc1ccc(NC(=O)c2cc(-c3ccco3)nc3ccccc23)c(C)c1 [RS6008, N-(2,4-Dimethylphenyl)-2-(furan-2-yl) quinoline-4-carboxamide] |  |  |  |  | delayed cell proliferation | strong decrease in cell viability |
| Cc1ccc(-c2cc(C(=O)Nc3ccc(C(F)(F)F)cc3C(F)(F)F)c3ccccc3n2)o1 [RS6648, N-(2,4-bis(Trifluoromethyl)phenyl)-2-(5-methylfuran-2-yl) quinoline-4-carboxamide] |  | increase in anomalous kinetochore activity |  |  | delayed cell proliferation |  |
